Source: ChEMBL document CHEMBL1128101, “Cycloproctolin and [-Methyl-l-Tyr]-proctolin are potent antagonists of proctolin-induced inositol phosphate production in locust foregut homogenates” (1995)
Where a SMILES comes first, the peptide text is derived from it.

Legend:
Assay type in all cases: functional
Schistocerca gregaria [1] = assay: Tested for dose dependent release of inositol phosphate (InsP3) at 10 nM
Schistocerca gregaria [2] = assay: Tested for dose dependent release of inositol phosphate (InsP4) at 10 nM
Schistocerca gregaria [3] = assay: Tested for dose dependent release of inositol phosphate (InsP3) at 1 uM
Schistocerca gregaria [4] = assay: Tested for dose dependent release of inositol phosphate (InsP4) at 1 uM
Schistocerca gregaria [5] = assay: Tested for dose dependent release of inositol phosphate (InsP4) at 0.5 uM
Schistocerca gregaria [6] = assay: Tested for dose dependent release of inositol phosphate (InsP3) at 0.5 uM
Schistocerca gregaria [7] = assay: Tested for dose dependent release of inositol phosphate (InsP4) at 1 uM in the presence of compound 1 (0.5 uM)
Schistocerca gregaria [8] = assay: Tested for dose dependent release of inositol phosphate (InsP3) at 1 uM in the presence of compound 1 (0.5 uM)

Compound | Increase in DPM (Schistocerca gregaria [1]) | Increase in DPM (Schistocerca gregaria [2]) | Increase in DPM (Schistocerca gregaria [3]) | Increase in DPM (Schistocerca gregaria [4]) | Increase in DPM (Schistocerca gregaria [5]) | Increase in DPM (Schistocerca gregaria [6]) | Increase in DPM (Schistocerca gregaria [7]) | Increase in DPM (Schistocerca gregaria [8])
CC(C)C[C@@H]1NC(=O)[C@H](Cc2ccc(O)cc2)NC(=O)[C@H](CCCN=C(N)N)NC(=O)[C@H]([C@@H](C)O)NC(=O)[C@@H]2CCCN2C1=O (HELM PEPTIDE1{L.P.T.R.Y}$PEPTIDE1,PEPTIDE1,1:R1-5:R2$$$V2.0) | 1200 (mg of protein)-1 | 750 (mg of protein)-1 | 500 (mg of protein)-1 | 300 (mg of protein)-1 |  |  |  | 
H-RYLPT-OH | 1250 (mg of protein)-1 | 1100 (mg of protein)-1 |  |  | 1600 (mg of protein)-1 | 3400 (mg of protein)-1 |  | 
CC(C)C[C@@H](NC(=O)[C@@](C)(Cc1ccc(O)cc1)NC(=O)[C@@H](N)CCCN=C(N)N)C(=O)N1CCC[C@@H]1C(=O)N[C@H](C(=O)O)[C@H](C)O | 500 (mg of protein)-1 | 250 (mg of protein)-1 | 400 (mg of protein)-1 | 250 (mg of protein)-1 |  |  |  | 
CC(C)C[C@H](NC(=O)[C@H](Cc1ccc(O)cc1)N(C)C(=O)[C@@H](N)CCCN=C(N)N)C(=O)N1CCC[C@H]1C(=O)N[C@H](C(=O)O)[C@@H](C)O (HELM PEPTIDE1{R.[meY].L.P.T}$$$$V2.0) |  |  |  |  |  |  | 1500 (mg of protein)-1 | 3600 (mg of protein)-1
